From patent US5190870A, “Method for oxidizing hydrocarbons with a hydroxylase from a methane monooxygenase” (Amoco Corporation, priority 1990, dated 1993)

T1: Methylosinus trichosporium OB3b soluble methane monooxygenase, complete system (hydroxylase, component B, reductase) (Methylosinus trichosporium, UniProt P27353)
T1 sequence (P27353 1-526): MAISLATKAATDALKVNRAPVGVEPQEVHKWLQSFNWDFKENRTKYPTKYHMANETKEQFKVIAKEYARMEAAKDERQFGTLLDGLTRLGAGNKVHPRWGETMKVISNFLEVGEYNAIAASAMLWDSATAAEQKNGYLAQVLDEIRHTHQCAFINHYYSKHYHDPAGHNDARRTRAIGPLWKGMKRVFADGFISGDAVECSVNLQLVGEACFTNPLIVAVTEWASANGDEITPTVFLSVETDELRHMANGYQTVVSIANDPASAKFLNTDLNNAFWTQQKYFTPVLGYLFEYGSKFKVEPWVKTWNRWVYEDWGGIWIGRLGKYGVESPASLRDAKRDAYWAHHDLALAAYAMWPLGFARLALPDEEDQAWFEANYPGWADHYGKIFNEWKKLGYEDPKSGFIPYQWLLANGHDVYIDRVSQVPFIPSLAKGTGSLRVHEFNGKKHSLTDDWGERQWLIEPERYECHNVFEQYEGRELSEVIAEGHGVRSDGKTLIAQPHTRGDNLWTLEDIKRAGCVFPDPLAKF
T1 sequence (P27354 1-394 partner): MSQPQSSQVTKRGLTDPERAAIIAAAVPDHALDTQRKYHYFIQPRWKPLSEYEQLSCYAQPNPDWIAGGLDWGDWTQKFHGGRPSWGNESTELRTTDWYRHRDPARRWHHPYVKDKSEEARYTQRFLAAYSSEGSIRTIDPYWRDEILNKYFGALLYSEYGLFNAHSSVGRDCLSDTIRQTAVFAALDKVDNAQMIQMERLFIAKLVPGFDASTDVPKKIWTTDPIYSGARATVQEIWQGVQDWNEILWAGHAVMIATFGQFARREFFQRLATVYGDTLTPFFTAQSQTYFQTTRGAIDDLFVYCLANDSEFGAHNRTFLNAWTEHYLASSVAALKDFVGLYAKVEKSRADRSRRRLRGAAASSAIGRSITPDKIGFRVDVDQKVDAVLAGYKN
T1 sequence (P27355 1-169 partner): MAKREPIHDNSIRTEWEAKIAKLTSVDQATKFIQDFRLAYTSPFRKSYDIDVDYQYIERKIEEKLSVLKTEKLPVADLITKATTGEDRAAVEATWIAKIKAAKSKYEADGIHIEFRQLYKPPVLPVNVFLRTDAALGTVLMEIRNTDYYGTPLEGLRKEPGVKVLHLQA

B1: Methylosinus trichosporium OB3b soluble methane monooxygenase, complete system (hydroxylase, component B, reductase) (Methylosinus trichosporium) (protein)
chain: T1 sequence (P27353 1-526)

Assays:
[1] = target: T1, Methylosinus trichosporium OB3b soluble methane monooxygenase, complete system (hydroxylase, component B, reductase); test: Polarographic / gas chromatographic assay of the complete (reconstituted) methane monooxygenase; conditions: catalytic cycles per second per molecule
Method: (§1) Unless explicitly stated, the specific activity values reported for the enzyme components are those observed during the hydroxylation reaction in the presence of optimal concentrations of the other components of the methane monooxygenase. The optimal concentrations were determined by varying the concentration of one component relative to fixed concentrations of the other two components. In routine polarographic assays of methane monooxygenase activity, furan is an acceptable substrate with characteristics which facilitate the assay.

[2] = substrate: c1ccoc1; test: purified protein, by the assay type; conditions: other: complete methane monooxygenase, polarographic assay; pH 7.0; 30.0 °C
Method: as §1

Molecule | turnover number relative to the hydroxylase [1] | Km [2]
c1ccoc1 [furan] | 7.6 S^-1 | 
B1 |  | 20 µM
